{
  "source": "patent US8110528B2",
  "about": "“Active ingredient combinations with insecticidal properties” (Bayer Cropscience AG, priority 2006, dated 2012)",
  "key": {"Myzus persicae": {"system": "Myzus persicae", "test": "Myzus persicae test (cabbage leaf dip)", "type": "in vivo, green peach aphid (Myzus persicae)", "details": "cabbage leaves dipped", "text": "(§1) The expected activity for a given combination of two active compounds can be calculated according to S. R. Colby, Weeds 15 (1967), 20-22 as follows: • If • X is the kill rate, expressed in % of the untreated control, when active compound A is applied at an application rate of m g/ha or at a concentration of m ppm, • Y is the kill rate, expressed in % of the untreated control, when active compound B is applied at an application rate of n g/ha or at a concentration of n ppm and • E is the kill rate, expressed in % of the untreated control, when active compounds A and B are applied at application rates of m and n g/ha or at a concentration of m and n ppm, then\n(§2) If the actual insecticidal kill rate is greater than calculated, the kill of the combination is superadditive, i.e. there is a synergistic effect. In this case, the actual observed kill rate has to be greater than the value for the expected kill rate (E) calculated from the formula given above.\n• Solvent: 7 parts by weight of dimethylformamide • Emulsifier: 2 parts by weight of alkylaryl polyglycol ether […]\nAfter the desired period of time, the kill in % is determined. […] The kill rates determined are entered into the Colby formula (see sheet 1)."}, "Phaedon cochleariae": {"system": "Phaedon cochleariae", "test": "Phaedon cochleariae larvae test (cabbage leaf dip)", "type": "in vivo, mustard beetle (Phaedon cochleariae) larvae", "details": "cabbage leaves dipped", "text": "as §1, §2\n• Solvent: 7 parts by weight of dimethylformamide • Emulsifier: 2 parts by weight of alkylaryl polyglycol ether\nTo produce a suitable preparation of active compound, 1 part by weight of active compound is mixed with the stated amounts of solvent and emulsifier, and the concentrate is diluted with emulsifier-containing water to the desired concentration.\nCabbage leaves (Brassica oleracea) are treated by being dipped into the preparation of active compound of the desired concentration and populated with larvae of the mustard beetle (Phaedon cochleariae) while the leaves are still moist.\nAfter the desired period of time, the kill in % is determined. 100% means that all beetle larvae have been killed; 0% means that none of the beetle larvae have been killed. The kill rates determined are entered into the Colby formula (see sheet 1)."}},
  "data": [
    {"smiles": "CN/C(=N\\[N+](=O)[O-])NCc1cnc(Cl)s1", "note": "[clothianidin]", "values": [
      {"measurement": "Kill in % after 6d", "setting": "Myzus persicae; 0.16 ppm", "value": 35, "unit": "%"},
      {"measurement": "Kill in % after 4d", "setting": "Phaedon cochleariae; 4 ppm", "value": 25, "unit": "%"},
      {"measurement": "Kill in % after 6d", "setting": "Phaedon cochleariae; 4 ppm", "value": 21, "unit": "%"}
    ]},
    {"smiles": "CN(Cc1ccc(Cl)nc1)C1=CC(=O)OC1", "note": "[compound (Ia)]", "values": [
      {"measurement": "Kill in % after 4d", "setting": "Phaedon cochleariae; 20 ppm", "value": 5, "unit": "%"}
    ]},
    {"smiles": "O=C1C=C(N(Cc2ccc(Cl)nc2)C2CC2)CO1", "note": "[compound (Ib)]", "values": [
      {"measurement": "Kill in % after 6d", "setting": "Myzus persicae; 0.8 ppm", "value": 25, "unit": "%"},
      {"measurement": "Kill in % after 6d", "setting": "Phaedon cochleariae; 20 ppm", "value": 11, "unit": "%"}
    ]}
  ]
}
